This note sets out measurements from US20240261443A1, “COMPOUNDS AND COMPOSITIONS USEFUL AS RADIOTRACERS FOR IMAGING OF REACTIVE OXIDATIVE SPECIES” (Wake Forest University Health Sciences, priority 2019, published 2024).

For one data set, the system named is PC3 cell line. Put plainly: MTT cytotoxicity IC50 assay, PC3. It counts as cell-based, human. Conditions: Homo sapiens. On the procedure: (§1) The cells were seeded at density 5×10^3 cells/well. After 24 h pre-incubation period, cells were treated with 0.01 mM to 2.0 mM of freshly prepared KS1 and KS2 along with ascorbate (n=3) for 48 h. 0.2% of DMSO served as vehicle control. After 48 h, the solutions were removed from all plates and MTT assays performed following the published protocols. IC50 values are presented as mean±SD from at least three independent experiments.
(§2) There is growing evidence for a therapeutic role of ascorbate against several cancers (Creagan et al., Failure of High-Dose Vitamin C (Ascorbic Acid) Therapy to Benefit Patients with Advanced Cancer. New England Journal of Medicine 1979, 301 (13), 687-690; Chen et al., Pharmacologic ascorbic acid concentrations selectively kill cancer cells: action as a pro-drug to deliver hydrogen peroxide to tissues. Proceedings of the National Academy of Sciences of the United States of America 2005, 102 (38), 13604-13609; Prasad et al., High Doses of Multiple Antioxidant Vitamins: Essential Ingredients in Improving the Efficacy of Standard Cancer Therapy. Journal of the American College of Nutrition 1999, 18 (1), 13-25). Pharmacologic doses of ascorbate (oral and/or intravenous) could increase the effectiveness of cancer chemotherapy in many solid cancer therapies (López-Lizaro, Dual role of hydrogen peroxide in cancer: Possible relevance to cancer chemoprevention and therapy. Cancer Letters 2007, 252 (1), 1-8; Li et al., New Developments and Novel Therapeutic Perspectives for Vitamin C. The Journal of Nutrition 2007, 137 (10), 2171-2184; Klimant et al., Intravenous vitamin C in the supportive care of cancer patients: a review and rational approach. Current Oncology 2018, 25 (2), 139-148. The primary objective of this experiment was to determine the cytotoxic effects of KS1 at pharmacological concentrations. Cancer cell lines were selected based on their high ROS implications. […] These cell lines have been studied extensively with ascorbic acid treatments (Schoenfeld et al., O(2)(·−) and H(2)O(2)-Mediated Disruption of Fe Metabolism Causes the Differential Susceptibility of NSCLC and GBM Cancer Cells to Pharmacological Ascorbate. Cancer Cell 2017, 31 (4), 487-500.e8; Chen et al., Modulators of Redox Metabolism in Head and Neck Cancer. Antioxidants & Redox Signaling 2017, 29 (16), 1660-1690; Khandrika et al., Oxidative stress in prostate cancer. Cancer Lett 2009, 282 (2), 125-136.
(In general: Formazan colour is commonly taken as a measure of viable cells.)

A further data set concerns SCC-61 cell line (HNSCC). Put plainly: MTT cytotoxicity IC50 assay, SCC-61. Conditions: Homo sapiens, SCC-61, MTT. It counts as cell-based, human. On the procedure: as §1, §2
Data set [1] deals with SCC-61 and rSCC-61 cell lines. Briefly: MitoSOX fluorescence ROS assay, with or without SOD blocker. It counts as cell-based, human. On the procedure: As a first-line tool to screen KS1 and KS2: SCC-61 has higher intracellular ROS than rSCC-61. MitoSOX is a mitochondrion-targeted dihydroethidium based derivative that primarily detects ROS (superoxide anion) produced within mitochondria. Mitosox assays without any ligands were used as controls. The two cell lines were treated with KS1, KS2 and ascorbate (10.0 μM) and incubated for an hour. MitoSOX (1.0 μM) in phenol red-free DMEM/F12 media was added and incubated for an additional 10 min. The cells were then washed with PBS and imaged in the same media.
In addition to testing KS1 with the MitoSOX assay, we compared our results with no ligand controls and ascorbate as a reference standard. The two cell lines were treated with KS1 and ascorbate (10.0 μM) and incubated for an hour. MitoSOX (1.0 μM) in phenol red-free DMEM/F12 media was added and incubated for an additional 10 min. The cells were then washed with PBS and imaged in the same media. Ligand specificity is commonly determined by pretreating the cells with high concentrations of blockers. Superoxide dismutase (SOD), an enzyme that selectively suppresses accumulation of ROS-superoxide peroxide anions, was added as blocker (1.0 mM) 60 min before the treatment of KS1 (Bielski et al., Chemistry of ascorbic acid radicals. in Ascorbic Acid: Chemistry, Metabolism, and Uses. Chapter. 1982; 4:81-100). Fluorescence was subsequently measured and its intensity was quantified in f.u (fluorescence units).
Ligand specificity is commonly determined by pretreating the cells with high concentrations of blockers. We used superoxide dismutase (SOD), an enzyme that selectively suppresses accumulation of ROS-superoxide peroxide anions (Bielski et al., Chemistry of ascorbic acid radicals. in Ascorbic Acid: Chemistry, Metabolism, and Uses. Chapter 1982, 4, 81-100). The same MitoSOX assay with KS1 and KS2 (10 μM) was performed by pretreating the SCC-61 cells with SOD (1.0 mM) for 60 min.

A short description of the next data set: Ex vivo serum stability. It counts as in vitro ADME. As to conditions: human serum, 37° C., after 120 min of tracer synthesis. The protocol: The ex vivo serum stability of [^18F]KS1 and [^18F]KS2 were analyzed in human serum samples, following previously published methods (Sai et al., Peptide-based PET imaging of the tumor restricted IL13RA2 biomarker. Oncotarget 2017, 5; Sattiraju et al., IL13RA2 targeted alpha particle therapy against glioblastoma. Journal of Nuclear Medicine 2016, 57 (supplement 2), 634; Wang et al., Evaluation of F-18-labeled amino acid derivatives and [18F]FDG as PET probes in a brain tumor-bearing animal model. Nuclear Medicine and Biology 2005, 32 (4), 367-375). Briefly, radiotracer was added to the human serum sample, and incubated at 37° C. Radioactive serum mixture was injected into the QC-HPLC system at 5 min, 30 min, 1 h, 1.5 h, 2 h, 2.5 h, and 3 h post radiotracer synthesis. Radiolysis through defluorination and/or oxidation of the radiotracers (if any) can be seen as new radiochemical peaks at different retention times (Rt) than the original product peak (Jin et al., A promising F-18 labeled PET radiotracer (-)-[18F]VAT for assessing the VAChT in vivo. Journal of Nuclear Medicine 2015, 56 (supplement 3); Koglin et al., [F-18]BAY 85-8050: A novel tumor specific probe for PET imaging-Preclinical results. Journal of Nuclear Medicine 2010, 51 (supplement 2), 1535; […] et al., Imaging COX-2 expression in cancer using PET/SPECT radioligands: current status and future directions. […]

As a reminder, the IC50 is the concentration that inhibits the measured activity by half. A high value points to a need for much substance. With `O=C1O/C(=C/CCl)C(O)=C1OCc1ccc(OCCF)cc1` [KS1, (E)-5-(2-chloroethylidene)-3-(4-(2-fluoroethoxy)benzyloxy)-4-hydroxyfuran-2(5H)-one], the IC50 in the data set on PC3 cell line (PC-3, Example 7, 48 h) was found to be 311 µM; in the data set with PC3 cell line (PC-3, Example 13) it was 1010 µM; with SCC-61 cell line (HNSCC) (Example 7, 48 h) it was 288 µM; in the data set with SCC-61 cell line (HNSCC) (Example 13), 718 µM. Besides, the “MitoSOX fluorescence in SCC-61 compared to rSCC-61 cells” value in data set [1] (10.0 μM, 1 h incubation) is on record as “higher fluorescence”. Moreover, the “higher selectivity between the two cell lines compared to ascorbate selectivity” value in data set [1] (Example 4, SCC-61 vs rSCC-61, MitoSOX fluorescence) was about 10 fold. For the same compound, the “higher differential selectivity between the high- and low-ROS cell lines compared to ascorbate” value in data set [1] (Example 5, SCC-61 vs rSCC-61, MitoSOX fluorescence) is recorded as about 2.2 fold. Moreover, the “fluorescent intensity of KS1-mitoSOX with SOD” value in data set [1] (SCC-61 cells, 10 μM, SOD (1.0 mM) pretreatment 60 min) worked out at 1842 f.u. Also, the “fluorescent intensity of KS1-mitoSOX” value in data set [1] (SCC-61 cells, 10 μM, without SOD) was determined as 3631 f.u. For the same compound, in data set [1] (SCC-61 cells, SOD (1.0 mM) for 60 min), the “decrease of fluorescent uptake by SOD pretreatment” value is about 50%.

Take `O=C1O/C(=C/CCl)C(O)=C1OCc1ccc(OCC[18F])cc1` [[^18F]KS1]: in “Ex vivo serum stability”, the intact in serum is about 90%.
